Measured values as given in ChEMBL document CHEMBL1150587, “Evaluation of the potential cancer chemotherapeutic efficacy of natural product isolates employing in vivo hollow fiber tests” (J Nat Prod, 2002).
The source made the active and inactive calls. The rule behind the calls is not given here.

How the values were obtained:
P388 [1] = assay: Growth inhibition of mouse P388 cells implanted intraperitoneally to NCr nu/nu mouse at 7.13 to 28.5 umol/kg, ip administered from day 3 to 6 after implantation measured on day 7 by MTT-based hollow-fiber test; assay type: functional
Mus musculus [2] = assay: Toxicity in tumor cell implanted NCr nu/nu mouse assessed as body weight change at 28.5 umol/kg, ip administered from day 3 to 6 after implantation measured on day 7; assay type: organism-based; details: in vivo
LNCaP [3] = assay: Growth inhibition of human LNCAP cells implanted intraperitoneally to NCr nu/nu mouse at 7.13 to 28.5 umol/kg, ip administered from day 3 to 6 after implantation measured on day 7 by MTT-based hollow-fiber test; assay type: functional
MCF7 [4] = assay: Growth inhibition of human MCF7 cells implanted subcutaneously to NCr nu/nu mouse at 7.13 to 28.5 umol/kg, ip administered from day 3 to 6 after implantation measured on day 7 by MTT-based hollow-fiber test; assay type: functional
LNCaP [5] = assay: Cytotoxicity against human LNCAP cells after 72 hrs by SRB assay; assay type: functional, cell-based
Lu1 [6] = assay: Growth inhibition of human Lu1 cells implanted subcutaneously to NCr nu/nu mouse at 7.13 to 28.5 umol/kg, ip administered from day 3 to 6 after implantation measured on day 7 by MTT-based hollow-fiber test; assay type: functional
SK-MEL-2 [7] = assay: Growth inhibition of human SK-MEL-2 cells implanted intraperitoneally to NCr nu/nu mouse at 7.13 to 28.5 umol/kg, ip administered from day 3 to 6 after implantation measured on day 7 by MTT-based hollow-fiber test; assay type: functional
MCF7 [8] = assay: Growth inhibition of human MCF7 cells implanted intraperitoneally to NCr nu/nu mouse at 7.13 to 28.5 umol/kg, ip administered from day 3 to 6 after implantation measured on day 7 by MTT-based hollow-fiber test; assay type: functional
LNCaP [9] = assay: Growth inhibition of human LNCAP cells implanted subcutaneously to NCr nu/nu mouse at 7.13 to 28.5 umol/kg, ip administered from day 3 to 6 after implantation measured on day 7 by MTT-based hollow-fiber test; assay type: functional
Mus musculus [10] = assay: Toxicity in tumor-implanted NCr nu/nu mouse at 57.5 umol/kg, ip administered from day 3 to 6 after implantation measured on day 7 by hollow-fiber test; assay type: organism-based; details: in vivo
SW626 [11] = assay: Cytotoxicity against human SW626 cells after 72 hrs by SRB assay; assay type: functional, cell-based; details: SW626, 72 h
KB [12] = assay: Growth inhibition of human KB cells implanted subcutaneously to NCr nu/nu mouse assessed as tumor size at 7.13 to 72.6 umol/kg, ip administered on day 10, 13, 16, 20 of implantation; assay type: functional, organism-based
SW626 [13] = assay: Growth inhibition of human SW626 cells implanted intraperitoneally to NCr nu/nu mouse at 7.13 to 28.5 umol/kg, ip administered from day 3 to 6 after implantation measured on day 7 by MTT-based hollow-fiber test; assay type: functional
SK-MEL-2 [14] = assay: Growth inhibition of human SK-MEL-2 cells implanted subcutaneously to NCr nu/nu mouse at 7.13 to 28.5 umol/kg, ip administered from day 3 to 6 after implantation measured on day 7 by MTT-based hollow-fiber test; assay type: functional
SK-MEL-2 [15] = assay: Cytotoxicity against human SK-MEL-2 cells after 72 hrs by SRB assay; assay type: functional, cell-based; details: SK-MEL-2, 72 h
KB [16] = assay: Cytotoxicity against human KB cells after 72 hrs by SRB assay; assay type: functional, cell-based
Mus musculus [17] = assay: Toxicity in NCr nu/nu mouse subcutaneously implanted with human KB cells assessed as mortality at 7.13 umol/kg, ip administered on day 10, 13, 16, 20 of implantation; assay type: organism-based; details: in vivo
[18] = Cytotoxicity against human KBV1 cells after 72 hrs by SRB assay; assay type: functional, cell-based; details: KB-V1, 72 h
[19] = Cytotoxicity against human BC1 cells after 72 hrs by SRB assay; details: BC1, 72 h
Mus musculus [20] = assay: Toxicity in NCr nu/nu mouse subcutaneously implanted with human KB cells assessed as change in body weight at 14.3 umol/kg, ip administered on day 10, 13, 16, 20 of implantation; assay type: organism-based; details: in vivo
Mus musculus [21] = assay: Toxicity in NCr nu/nu mouse subcutaneously implanted with human KB cells assessed as mortality at 14.3 umol/kg, ip administered on day 10, 13, 16, 20 of implantation; assay type: organism-based; details: in vivo
P388 [22] = assay: Growth inhibition of mouse P388 cells implanted subcutaneously to NCr nu/nu mouse at 7.13 to 28.5 umol/kg, ip administered from day 3 to 6 after implantation measured on day 7 by MTT-based hollow-fiber test; assay type: functional
Mus musculus [23] = assay: Toxicity in NCr nu/nu mouse subcutaneously implanted with human KB cells assessed as mortality at 28.5 umol/kg, ip administered on day 10, 13, 16, 20 of implantation; assay type: organism-based; details: in vivo
MCF7 [24] = assay: Cytotoxicity against human MCF7 cells after 72 hrs by SRB assay; details: MCF7, 72 h
Lu1 [25] = assay: Growth inhibition of human Lu1 cells implanted intraperitoneally to NCr nu/nu mouse at 7.13 to 28.5 umol/kg, ip administered from day 3 to 6 after implantation measured on day 7 by MTT-based hollow-fiber test; assay type: functional
Mus musculus [26] = assay: Toxicity in tumor cell implanted NCr nu/nu mouse assessed as body weight change at 14.3 umol/kg, ip administered from day 3 to 6 after implantation measured on day 7; assay type: organism-based; details: in vivo
KB [27] = assay: Growth inhibition of human KB cells implanted intraperitoneally to NCr nu/nu mouse at 7.13 to 28.5 umol/kg, ip administered from day 3 to 6 after implantation measured on day 7 by MTT-based hollow-fiber test; assay type: functional
SW626 [28] = assay: Growth inhibition of human SW626 cells implanted subcutaneously to NCr nu/nu mouse at 7.13 to 28.5 umol/kg, ip administered from day 3 to 6 after implantation measured on day 7 by MTT-based hollow-fiber test; assay type: functional
Lu1 [29] = assay: Growth inhibition of ip dosed intraperitoneally implanted human Lu1 cells to NCr nu/nu mouse administered from day 3 to 6 after implantation measured on day 7 by MTT-based hollow-fiber test; assay type: functional, organism-based
Col2 = assay: Cytotoxicity against human Col2 cells after 72 hrs by SRB assay; assay type: functional, cell-based; details: Col2, 72 h
P388 [30] = assay: Cytotoxicity against mouse P388 cells after 72 hrs by SRB assay; assay type: functional, cell-based; details: P388, 72 h
Mus musculus [31] = assay: Toxicity in tumor-implanted NCr nu/nu mouse at 144 umol/kg, ip administered from day 3 to 6 after implantation measured on day 7 by hollow-fiber test; assay type: organism-based; details: in vivo
KB [32] = assay: Growth inhibition of human KB cells implanted subcutaneously to NCr nu/nu mouse at 7.13 to 28.5 umol/kg, ip administered from day 3 to 6 after implantation measured on day 7 by MTT-based hollow-fiber test; assay type: functional
Mus musculus [33] = assay: Toxicity in NCr nu/nu mouse subcutaneously implanted with human KB cells assessed as change in body weight at 28.5 umol/kg, ip administered on day 10, 13, 16, 20 of implantation; assay type: organism-based; details: in vivo
Mus musculus [34] = assay: Toxicity in tumor cell implanted NCr nu/nu mouse assessed as body weight change at 7.13 umol/kg, ip administered from day 3 to 6 after implantation measured on day 7; assay type: organism-based; details: in vivo
Mus musculus [35] = assay: Toxicity in NCr nu/nu mouse subcutaneously implanted with human KB cells assessed as change in body weight at 7.13 umol/kg, ip administered on day 10, 13, 16, 20 of implantation; assay type: organism-based; details: in vivo
LNCaP [36] = assay: Growth inhibition of ip dosed intraperitoneally implanted human LNCAP cells to NCr nu/nu mouse administered from day 3 to 6 after implantation measured on day 7 by MTT-based hollow-fiber test; assay type: functional, organism-based
Lu1 [37] = assay: Cytotoxicity against human Lu1 cells after 72 hrs by SRB assay; assay type: functional, cell-based; details: Lu1, 72 h

C[C@@H]1CC[C@@]2(OC1)O[C@H]1C[C@H]3[C@@H]4CC=C5C[C@@H](O[C@@H]6O[C@H](CO)[C@@H](O[C@@H]7O[C@@H](C)[C@H](O)[C@@H](O)[C@H]7O)[C@H](O)[C@H]6O[C@@H]6O[C@@H](C)[C@H](O)[C@@H](O)[C@H]6O)CC[C@]5(C)[C@H]4CC[C@]3(C)[C@H]1[C@@H]2C [DIOSCIN]
inhibition (INH) (P388 [1]): 0%
Activity (Mus musculus [2]): -0.65 g
inhibition (INH) (LNCaP [3]): 36.9%
inhibition (INH) (MCF7 [4]): 7.3%
IC50 (LNCaP [5]): 1.7 µM
inhibition (INH) (Lu1 [6]): 0%
inhibition (INH) (SK-MEL-2 [7]): 2.3%
inhibition (INH) (MCF7 [8]): 0%
inhibition (INH) (LNCaP [9]): 35.9%
Activity (Mus musculus [10]): Toxic
IC50 (SW626 [11]): 3.1 µM
Activity (KB [12]): inactive
inhibition (INH) (SW626 [13]): 4.1%
inhibition (INH) (SK-MEL-2 [14]): 0%
IC50 (SK-MEL-2 [15]): 1.8 µM
IC50 (KB [16]): 20.7 µM
Activity (Mus musculus [17]): Non-toxic
IC50 [18]: > 23 µM
IC50 [19]: 3.8 µM
Activity (Mus musculus [20]): 8.4%
Activity (Mus musculus [21]): Non-toxic
inhibition (INH) (P388 [22]): 0%
Activity (Mus musculus [23]): Non-toxic
IC50 (MCF7 [24]): 22.4 µM
inhibition (INH) (Lu1 [25]): 24.6%
Activity (Mus musculus [26]): 0.45 g
inhibition (INH) (KB [27]): 79%
inhibition (INH) (SW626 [28]): 8.7%
Activity (Lu1 [29]): Dose-dependent effect
IC50 (Col2): 2.8 µM
IC50 (P388 [30]): 21.9 µM
Activity (Mus musculus [31]): Toxic
inhibition (INH) (KB [32]): 3.6%
Activity (Mus musculus [33]): 8.6%
Activity (Mus musculus [34]): 0.8 g
Activity (Mus musculus [35]): 7.1%
Activity (LNCaP [36]): Dose-dependent effect
IC50 (Lu1 [37]): 1.2 µM
